Experimental findings from patent US12655141B2, “Inhibitors of notch signaling pathway and use thereof in treatment of cancers” (Cellestia Biotech AG, priority 2019, dated 2026) are described below.

Structures are written as SMILES. Bounds are passed on as bounds.

Experiment [1] relates to NOTCH positive/driven human T cell acute lymphoblastic leukemia cell line RPMI 8402. The experiment can be described thus: Alamar blue anti-proliferative assay. The experiment is classed as cell-based. Conditions: for IC50: Homo sapiens, RPMI 8402, RPMI8402, 72 hours, concentration range 0.01-10 μM. Here is the method: (§1) Alamarblue® and PrestoBlue proliferation assays were performed to determine the growth kinetics of Notch inhibitor treated cells. Alamar Blue® and PrestoBlue consists of a cell permeable substrate resazurin. In metabolically active and proliferating cells, resazurin is converted to resorufin due to an intrinsic reducing power of live cells and produces a red fluorescence. Therefore production of resorufin serves as an indicator of the viability of the cell population.
Proliferation assays were performed by seeding 5000 cells/well in a 96 well plate. Cells were treated with DMSO or compounds for 72 hours using concentration ranges of 0.01-10 μM. Each concentration was tested in 4 replicates. To determine the growth kinetics, 10 μl of Alamar Blue® or PrestoBlue (Invitrogen) was added to each well and incubated for 4 hours. Readout was taken using Tecan F500 (Tecan) multiplate reader or Varioskan LUX (ThermoFisher) multiplate reader.
(§2) In order to determine anti-cancer potency of compounds compared to 6-(4-tert-butylphenoxy)pyridin-3-amine (described in WO2013/093885), NOTCH positive/driven human T cell acute lymphoblastic leukemia cell line RPMI 8402 was treated with selected compounds.
A general note: Alamar Blue is a resazurin reagent that responds to reducing activity.

The next experiment concerns cMYC. The experiment can be described thus: Jess western blot of RPMI8402 protein lysates: cMYC. The experiment is classed as cell-based, human. Conditions: RPMI8402, 1 μM, 24 hours, 37° C. Here is the method:
(§3) One million human NOTCH positive T-ALL cell line RPMI8402 were treated with NOTCH targeting compounds at 1 μM concentration for 24 hours. Following treatment cells were harvested and washed with 1×PBS. Total RNA and total protein lysates were extracted as described below.
(§4) Cells were lysed in RIPA buffer (50 mM Tris·Cl, pH 7.5, 150 mM NaCl, 1% nonidet P-40, 0.5% sodium deoxycholate and 0.1% SDS) for 30 minutes at 4° C. Lysed cells were centrifuged to remove the debris at 14000 rpm at 4° C. Supernatant was transferred to a new eppendorf tube. The protein concentration was determined by Bradford assay using spectrophotometer (Ultrospec 3000 pro).
(§5) Later on western blotting was carried out using Jess (ProteinSimple, biotechne). Samples containing 0.8 μg protein was denatured in loading buffer containing DTT by heating at 95° C. for 5 minutes. Samples were run on 12-230 kDa gel matrix, with incubation time for primary and secondary antibodies of 1 hour and 30 minutes, respectively. Data were analysed using Compass for SW (ProteinSimple, biotechne) software.
(§6) Total protein lysates were analysed by Jess western blot analysis using N1-ICD (cleaved and active NOTCH1 Intracellular Domain), cMYC and GAPDH specific antibodies.
(In general: A western blot detects proteins with antibodies after separation by electrophoresis.)

Experiment [2] relates to N1-ICD (cleaved and active NOTCH1 Intracellular Domain). Put plainly: Jess western blot of RPMI8402 protein lysates: N1-ICD. Format: cell-based, human. Conditions: RPMI8402, 1 μM, 24 hours, 37° C. Here is the method:
as §3, §4, §5, §6

In experiment [3] the test system is NOTCH positive/driven human T cell acute lymphoblastic leukemia cell line RPMI 8402. The experiment can be described thus: PrestoBlue anti-proliferative assay. The experiment is classed as cell-based. Conditions: for IC50: Homo sapiens, RPMI 8402, RPMI8402, 72 hours, concentration range 0.03-100 μM; for fold change compared to 6-(4-tert-butylphenoxy)pyridin-3-amine (anti-proliferative IC50): RPMI8402, 72 hours. Here is the method: as §1
Proliferation assays were performed by seeding 5000 cells/well in a 96 well plate. […] Each concentration was tested in 4 replicates. To determine the growth kinetics, 10 μl of Alamar Blue® or PrestoBlue (Invitrogen) was added to each well and incubated for 4 hours. Readout was taken using Tecan F500 (Tecan) multiplate reader or Varioskan LUX (ThermoFisher) multiplate reader.
as §2

Turning to `Nc1ccc(OCCc2cc(Oc3ccc(N)cn3)ccc2-c2ccccc2)cc1` [Example 22, 6-((2-(2-(4-Aminophenoxy)ethyl)-[1,1′-biphenyl]-4-yl)oxy)pyridin-3-amine], in experiment [1], the half-maximal inhibitory concentration (IC50) turned out to be 920 nM.
Regarding `Cc1cc(Oc2ccc(-c3ccccc3)nc2)ncc1N` [Example 31, 4-Methyl-6-((6-phenylpyridin-3-yl)oxy)pyridin-3-amine], the “Percentage improvement of compounds over 6-(4-tert-Butylphenoxy)pyridin-3-amine to downregulate NOTCH target genes (protein expression): cMYC” value (shortened to “Percentage improvement of compounds … cMYC”) in the experiment on cMYC was 108%. Besides, the “Percentage improvement of compounds over 6-(4-tert-Butylphenoxy)pyridin-3-amine to downregulate NOTCH target genes (protein expression): N1-ICD” value (from here on “Percentage improvement of compounds … N1-ICD”) in experiment [2] is 110%.
Take `CC(C)(C)c1ccc(Oc2ccc(N)cn2)cc1` [6-(4-tert-butylphenoxy)pyridin-3-amine, reference compound]: the half-inhibitory concentration (IC50) in experiment [1] and in experiment [3] was 740 nM in each case. For the same compound, the “fold change compared to 6-(4-tert-butylphenoxy)pyridin-3-amine (anti-proliferative IC50)” value (shortened to “fold change”) in experiment [1] (RPMI8402, 72 hours) is listed as “(1X) x”; in experiment [3] it was “(1X) x”. Besides, in the experiment on cMYC, the “Percentage improvement of compounds … cMYC” value turned out to be 100%. Besides, the “Percentage improvement of compounds … N1-ICD” value in experiment [2] was found to be 100%.
With `Cc1nc(Oc2ccc(-c3nccs3)cc2)ccc1N` [Example 35, 2-Methyl-6-(4-(thiazol-2-yl)phenoxy)pyridin-3-amine], in experiment [3], the IC50 was < 30 nM and the “fold change” value is “(>24x)”. Also, the “Percentage improvement of compounds … cMYC” value in the experiment with cMYC came to 130%. Also, the “Percentage improvement of compounds … N1-ICD” value in experiment [2] amounted to 132%.
For `Cc1cc(Oc2ccc(-c3ccc(F)cc3)cc2)ncc1N` [Example 29, 6-((4′-Fluoro-[1,1′-biphenyl]-4-yl)oxy)-4-methylpyridin-3-amine], the “Percentage improvement of compounds … cMYC” value with cMYC is given as 183%. In addition, the “Percentage improvement of compounds … N1-ICD” value in experiment [2] is 192%.
`Nc1ccc(Oc2ccc(-c3ccccc3)cc2)cc1` [Example 7, 4-([1,1′-Biphenyl]-4-yloxy)aniline]: inhibition in experiment [1] was half-maximal at 170 nM (IC50).
On to `Cc1cc(Oc2ccc(-c3cncs3)cc2)ncc1N` [Example 33, 4-Methyl-6-(4-(thiazol-5-yl)phenoxy)pyridin-3-amine], for which, in experiment [3], the 50% inhibitory concentration (IC50) is < 30 nM and the “fold change” value is “(>24x)”. Also, the “Percentage improvement of compounds … cMYC” value in the experiment with cMYC is 130%. In experiment [2], the “Percentage improvement of compounds … N1-ICD” value turned out to be 132%.
`CNc1ccc(Oc2ccc(-c3cncs3)cc2)nc1` [Example 34, N-Methyl-6-(4-(thiazol-5-yl)phenoxy)pyridin-3-amine]: in experiment [3], it took 150 nM to reach half-maximal inhibition (IC50) and the “fold change” value is reported as “(4.9x)”. The “Percentage improvement of compounds … cMYC” value in the experiment on cMYC came out at 115%. Also, the “Percentage improvement of compounds … N1-ICD” value in experiment [2] is given as 114%.
For `Cc1nc(Oc2ccc(-c3cncs3)cc2)ccc1N` [Example 32, 2-Methyl-6-(4-(thiazol-5-yl)phenoxy)pyridin-3-amine] the same measures were 500 nM, “(1.5x)”, 133% and 136%.
Turning to `Cc1cc(Oc2ccc(-c3nccs3)cc2)ncc1N` [Example 36, 4-Methyl-6-(4-(thiazol-2-yl)phenoxy)pyridin-3-amine], in experiment [3], the IC50 came out at 50 nM and the “fold change” value was “(14.8x)”.
Regarding `Cc1nc(Oc2ccc(-c3ccc(F)cc3)cc2)ccc1N` [Example 28, 6-((4′-Fluoro-[1,1′-biphenyl]-4-yl)oxy)-2-methylpyridin-3-amine], in experiment [3], the half-maximal inhibitory concentration (IC50) was < 30 nM and the “fold change” value was “(>24x)”. Moreover, in the experiment on cMYC, the “Percentage improvement of compounds … cMYC” value was determined as 170%. For the same compound, in experiment [2], the “Percentage improvement of compounds … N1-ICD” value came out at 173%.
In the case of `CNc1ccc(Oc2ccc(-c3ccc(F)cc3)cc2)nc1` [Example 27, 6-((4′-Fluoro-[1,1′-biphenyl]-4-yl)oxy)-N-methylpyridin-3-amine], in experiment [3], inhibition was half-maximal at 200 nM (IC50) and the “fold change” value is listed as “(3.7x)”. In addition, the “Percentage improvement of compounds … cMYC” value with cMYC was 183%. In addition, the “Percentage improvement of compounds … N1-ICD” value in experiment [2] came to 197%.
In experiment [1], `CNc1ccc(Oc2ccc(-c3ccccc3)cc2)c(F)c1` [Example 6, 4-([1,1′-Biphenyl]-4-yloxy)-3-fluoro-N-methylaniline] showed an IC50 of 700 nM.
For the compound `Cc1nc(Oc2ccc(-c3ccccc3)nc2)ccc1N` [Example 30, 2-Methyl-6-((6-phenylpyridin-3-yl)oxy)pyridin-3-amine], in experiment [3], inhibition was half-maximal at 450 nM (IC50) and the “fold change” value was “(1.6x)”. Further, the “Percentage improvement of compounds … cMYC” value with cMYC came out at 159%. In addition, in experiment [2], the “Percentage improvement of compounds … N1-ICD” value is 159%.
With `Nc1ccc(Cc2ccc(-c3ccc(F)cc3)cc2)cc1` [Example 59, 4-((4′-Fluoro-[1,1′-biphenyl]-4-yl)methyl)aniline], the “Percentage improvement of compounds … cMYC” value in the experiment with cMYC is on record as 154%. Also, the “Percentage improvement of compounds … N1-ICD” value in experiment [2] came to 149%.
For `Cc1ccccc1-c1ccc(Oc2ccc(N)c(C)n2)cc1C` [Example 37, 6-((2,2′-Dimethyl-[1,1′-biphenyl]-4-yl)oxy)-2-methylpyridin-3-amine], in that order: 138% and 151%.

Usually IC50 stands for the concentration needed to halve the response being measured. Low readings indicate higher potency, high ones lower potency.
